# Data taken from patent US20240415839A1, “Identification and Treatment of Cancers Associated with RASGRF1 Gene Fusions” (YALE UNIVERSITY, priority 2021, published 2024).
# Tests used:
# [1] = system: PaCaDD137 cells; experiment: Cell viability (Cell Titer-Glo), PaCaDD137 cells; type: cell-based
# Method: Cell Viability Assays and RASGRF1 knockdown. Ba/F3 cells or PaCaDD137 cells were seeded in 96-well microtiter plates. Drug or drug vehicle was added on the same day (for Ba/F3 cells) or 24 hours after seeding (for PaCaDD137 cells). […] Luminescence was measured with a Spectramax M3 plate reader (Molecular Devices). Data analysis was performed using GraphPad Prism software.
# [2] = system: Ba/F3 cells expressing OCLN-RASGRF1; experiment: Cell viability (Cell Titer-Glo), Ba/F3 cells expressing OCLN-RASGRF1; type: cell-based
# Method: Ba F3 Transformation Assays. Ba/F3 cells were maintained in RPMI 1640 (Gibco) with heat-inactivated 10% fetal bovine serum (Gibco) and penicillin (100 units/mL)/streptomycin (100 μg/mL; Gibco) and 1 ng/mL interleukin-3 (IL-3; Gibco). cDNAs (GFP or OCLN-RASGRF1) in pLX307 were introduced into Ba/F3 cells via lentiviral transduction with 8 μg/mL polybrene and centrifugation at 2250 rpm at 37 degrees C. for 30 minutes. 24 hours later, transduced cells were selected with 1 μg/mL puromycin for at least 5 days.
# Cell Viability Assays and RASGRF1 knockdown. Ba/F3 cells or PaCaDD137 cells were seeded in 96-well microtiter plates. Drug or drug vehicle was added on the same day (for Ba/F3 cells) or 24 hours after seeding (for PaCaDD137 cells). Following 4-5 days of drug exposure, cell viability was determined using the Cell Titer-Glo luminescent assay (Promega) according to the manufacturer's instructions. Luminescence was measured with a Spectramax M3 plate reader (Molecular Devices). Data analysis was performed using GraphPad Prism software.
"IC50 ([2]; Mus musculus, BaF3, 96 h, 4 days exposure, Cell Titer-Glo, read-out: half maximal inhibitory concentration (IC50), cell viability) [nM]",SMILES,"activity of addition of pictilisib to trametinib compared to trametinib alone ([1]; 100 or 500 nM pictilisib, 6 days)",sensitivity (cell viability) ([1]; Cell Titer-Glo),"activity of addition of pictilisib to trametinib compared to trametinib alone ([2]; 100 or 500 nM pictilisib, 4 days)","sensitivity (cell viability) ([2]; 4 days, Cell Titer-Glo)","IC50 ([1]; 120 h, 5 days, Cell Titer-Glo) [nM]"
,CS(=O)(=O)N1CCN(Cc2cc3nc(-c4cccc5[nH]ncc45)nc(N4CCOCC4)c3s2)CC1 [pictilisib],only a modest increase in activity,not,only a modest increase in activity,only a modest increase in sensitivity,
~0.15,CC(=O)Nc1cccc(-n2c(=O)n(C3CC3)c(=O)c3c(Nc4ccc(I)cc4F)n(C)c(=O)c(C)c32)c1 [trametinib],,,,,~20
